Structures can show the parent of a compound that is named as a salt. Marks after values point to notes of the source that are not given here.

The record followed here is patent US6653455B1, “Crystallization of doxorubicin hydrochloride” (Mercian Corporation, priority 1998, dated 2003).

Holding throughout (type): physicochemical
Data set [1] can be described thus: Solubility test (dissolving time in water). The conditions noted are these: 50 mg sample in 5 ml water, 25° C., about 600 rounds/minute stirring, time until completely dissolved; hydrochloride. The procedure:
A beaker of 20 ml (minor diameter: 30 mm) was charged with 5 ml of water and then 50 mg of a DOX.HCl crystal sample, and the sample was stirred at 25° C. and about 600 rounds/minute by means of a magnetic stirrer (diameter 6 mm×length 10 mm). Time consumed until the sample was completely dissolved was measured wile observing the dissolving state every 30 seconds with naked eyes.
The solubility test described above was carried out for a DXR.USP standard product (Lot J) (average particle diameter: 28 μm) as comparison and Examples 2, 46,51, 55, 56, 57 and 58, and the results thereof are shown in Table III.

A short description of data set [2]: Hygroscopicity, cup method (weight change). The conditions noted are these: weight-increasing rate, 25° C., 50 to 60% RH, 15 minutes; crystals dried at 40° C. under vacuum; hydrochloride. The procedure: Determined by the following cup method. To be specific, about 15 to 20 mg of the sample was put in a cylindrical cup having a diameter of 6 mm and a depth of 6 mm and left standing at a fixed temperature (25° C.) and relative humidity (50 to 60% RH) for 15 minutes to measure a weight change, whereby the hygroscopicity was evaluated.
In the following respective examples, a weight-increasing rate of 0.40% or more is shown by an evaluation criterion that the hygroscopicity is large (−); a weight-increasing rate of 0.20% or more and less than 0.40% is shown by an evaluation criterion that the hygroscopicity is ;intermediate (±); and a weight-increasing rate of less than 0.20% is shown by an evaluation criterion that the hygroscopicity is small: (+).

A short description of data set [3]: Average particle diameter, microscopic method (Heywood circle-corresponding diameter). To be noted: 10 typical crystals on photograph, hydrochloride. An excerpt:
The average particle diameter is shown by a diameter of a circle having the same area as an injected area of the particle, a so-called Heywood diameter (circle-corresponding diameter) according to a microscopic method (injected image). A small amount of the crystals was put on a slide glass, and 1 to 2 drops of a hydrophilic surfactant (sesquioleic acid sorbitan) were fallen thereon to disperse them. It was photographed by means of a polarization microscope (photographing lens: 3.3 magnifications, objective lens: 20 magnifications) equipped with a photographing device. Optional 10 pieces of the typical crystals were selected on the photograph to measure a long diameter and a short diameter thereof An (projected) area of the particle was shown by long diameter×short diameter, and the particle diameter was shown by a diameter of a circle having the same area as that obtained above.

`COc1cccc2c1C(=O)c1c(O)c3c(c(O)c1C2=O)C[C@@](O)(C(=O)CO)C[C@@H]3O[C@H]1C[C@H](N)[C@H](O)[C@H](C)O1` [Example 56, doxorubicin hydrochloride] returned a Dissolving time in data set [1] of 1.5 to 2 min. The Hygroscopicity result in data set [2] is recorded as “+ (a weight-increasing rate of less than 0.20% is shown by an evaluation criterion that the hygroscopicity is small: (+))”. For the same molecule, in data set [3], the Average particle diameter was 37 μm.
For `COc1cccc2c1C(=O)c1c(O)c3c(c(O)c1C2=O)C[C@@](O)(C(=O)CO)C[C@@H]3O[C@H]1C[C@H](N)[C@H](O)[C@H](C)O1` [Example 55, doxorubicin hydrochloride] the same measures were 1.5 to 2 min, “+ (a weight-increasing rate of less than 0.20% is shown by an evaluation criterion that the hygroscopicity is small: (+))” and 24 μm.
For `COc1cccc2c1C(=O)c1c(O)c3c(c(O)c1C2=O)C[C@@](O)(C(=O)CO)C[C@@H]3O[C@H]1C[C@H](N)[C@H](O)[C@H](C)O1` [Example 2, doxorubicin hydrochloride] the same measures were 4 to 4.5 min, “− (a weight-increasing rate of 0.40% or more is shown by an evaluation criterion that the hygroscopicity is large (−))” and less than 4 μm.
Taken in the same sequence, the figures for `COc1cccc2c1C(=O)c1c(O)c3c(c(O)c1C2=O)C[C@@](O)(C(=O)CO)C[C@@H]3O[C@H]1C[C@H](N)[C@H](O)[C@H](C)O1` [Example 51, doxorubicin hydrochloride] were 1.5 to 2 min, “+ (a weight-increasing rate of less than 0.20% is shown by an evaluation criterion that the hygroscopicity is small: (+))” and 73 μm.
In turn, `COc1cccc2c1C(=O)c1c(O)c3c(c(O)c1C2=O)C[C@@](O)(C(=O)CO)C[C@@H]3O[C@H]1C[C@H](N)[C@H](O)[C@H](C)O1` [Example 46, doxorubicin hydrochloride] displayed a Dissolving time in data set [1] of 1.5 to 2 min. Besides, the Hygroscopicity result in data set [2] is listed as “+ (a weight-increasing rate of less than 0.20% is shown by an evaluation criterion that the hygroscopicity is small: (+))”. In data set [3], this molecule registered an Average particle diameter of 86 μm.
For `COc1cccc2c1C(=O)c1c(O)c3c(c(O)c1C2=O)C[C@@](O)(C(=O)CO)C[C@@H]3O[C@H]1C[C@H](N)[C@H](O)[C@H](C)O1` [Example 58, doxorubicin hydrochloride] the same measures were 14.5 to 15 min, “− (a weight-increasing rate of 0.40% or more is shown by an evaluation criterion that the hygroscopicity is large (−))” and less than 4 μm.
Regarding `COc1cccc2c1C(=O)c1c(O)c3c(c(O)c1C2=O)C[C@@](O)(C(=O)CO)C[C@@H]3O[C@H]1C[C@H](N)[C@H](O)[C@H](C)O1` [DXR.USP (comparison), doxorubicin hydrochloride], the Dissolving time in data set [1] is on record as 3-3.5* minute. Further, the Average particle diameter in data set [3] (listed as DXR.USP standard product (Lot J)) is reported as 28 μm.
Molecule `COc1cccc2c1C(=O)c1c(O)c3c(c(O)c1C2=O)C[C@@](O)(C(=O)CO)C[C@@H]3O[C@H]1C[C@H](N)[C@H](O)[C@H](C)O1` [Example 57, doxorubicin hydrochloride] yielded a Dissolving time in data set [1] of 1.5 to 2 min. Also, the Hygroscopicity entry in data set [2] was “± (a weight-increasing rate of 0.20% or more and less than 0.40% is shown by an evaluation criterion that the hygroscopicity is ;intermediate (±))”. Further, the Average particle diameter in data set [3] was 35 μm.
